This is an account of results in patent US20260174739A1 (priority 2022, published 2026).

The structures appear in SMILES notation.

The term IC50 denotes the concentration that gives 50% inhibition.

The target of one series is human DAT (Homo sapiens, UniProt Q01959). Briefly: DAT transporter inhibitory activity test (neurotransmitter transporter uptake assay kit). It counts as cell-based.
Series [1] is described as follows: Human liver microsome assay (metabolic stability). It counts as in vitro ADME. The following applies: pH 7.4; human liver microsomes 0.2 mg/mL, 1 μM test drug, NADPH, 37° C.; read-out: Half-life (t1/2, min). In a few lines:
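Human liver microsomes 0.2 mg/mL with 1 μM compound, 3.0 mM MgCl2 and 2.0 mM NADPH in 0.1 M phosphate pH 7.4, 37 °C; sampled at 0–60 min. LC-MS/MS peak-area ratio to internal standard; T1/2 and CLint from slope of ln residual versus time.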

A further series deals with human NET (Homo sapiens, UniProt P23975). Briefly: NET transporter inhibitory activity test (neurotransmitter transporter uptake assay kit). It counts as cell-based. How it is done: Transporter inhibition of human DAT and NET expressed in HEK-293 cells was assessed using a neurotransmitter transporter uptake assay kit. The assay was performed as described in the kit instructions, using centanafadine as a positive control. The specific procedures were as follows:
First day cell plating: HEK 293T cells were digested with trypsin, centrifuged, resuspended with a medium, counted, and seeded into a 6 cm culture dish at a density of 3×10^6 cells/well.
Second day cell transfection: HEK 293T cells were subjected to medium exchange, and then A, B tubes were prepared for NET-pcDNA5/FRT plasmid to be transfected. 200 μL of Opti-MEM was added to tube A, and 10 μL of Lipofectamine™ 3000 was added. The mixture was mixed well. 200 μL of Opti-MEM was added to tube B, and 5 μg of NET-pcDNA5/FRT plasmid was added. The mixture was mixed well, and then 10 μL of P3000™ was added to tube B. The mixture was mixed well (plasmid to transfection reagent ratio 1 μg:2 μL). The diluted solution of tube A was added to the diluted solution of tube B. The mixture was mixed well, and incubated at room temperature for 15 min. Finally, the mixture was gently added to the cells that had been subjected to medium exchange, gently shaken to mix, and then incubated overnight in an incubator at 37° C. with a carbon dioxide concentration of 5%. The cells were used for compound functional activity assays 18-20 h after transfection.
• a) After overnight transfection of NET cells, the cells were digested with trypsin, resuspended with DMEM+10% Dialyzed FBS medium, seeded into a 384-well plate at 20000 cells/well, and incubated overnight. Stably transfected DAT cells were digested with trypsin, resuspended with DMEM+10% Dialyzed FBS medium, seeded into a 384-well plate at 2500 cells/well, and incubated overnight. • b) 1× Assay buffer was prepared according to the kit instruction for later use; the positive compound and the test compound were serially diluted with DMSO, and then diluted to 2× with 1× assay buffer. • c) The medium was removed from the 384-well plate by centrifugation. • d) 16 μL of the compound prepared in step b) was added to corresponding experimental wells, wherein an initial concentration of 2× positive control compound was added to the positive control well, and 0.2% DMSO buffer was added to the negative control well. After centrifuging, the plate was incubated at 37° C. for 30 min. • e) A detection reagent was prepared using 1×HBSS, and 16 μL of the detection reagent was added to each well. After centrifuging, the plate was incubated at 37° C. for 60 min. • f) After incubation, the reading at 510 nm under the excitation of the detection wavelength of 425 nm was measured using a microplate reader. Curve fitting and IC50 calculation were performed using GraphPad Prism software nonlinear regression method.

Chain of human DAT (Q01959 whole entry): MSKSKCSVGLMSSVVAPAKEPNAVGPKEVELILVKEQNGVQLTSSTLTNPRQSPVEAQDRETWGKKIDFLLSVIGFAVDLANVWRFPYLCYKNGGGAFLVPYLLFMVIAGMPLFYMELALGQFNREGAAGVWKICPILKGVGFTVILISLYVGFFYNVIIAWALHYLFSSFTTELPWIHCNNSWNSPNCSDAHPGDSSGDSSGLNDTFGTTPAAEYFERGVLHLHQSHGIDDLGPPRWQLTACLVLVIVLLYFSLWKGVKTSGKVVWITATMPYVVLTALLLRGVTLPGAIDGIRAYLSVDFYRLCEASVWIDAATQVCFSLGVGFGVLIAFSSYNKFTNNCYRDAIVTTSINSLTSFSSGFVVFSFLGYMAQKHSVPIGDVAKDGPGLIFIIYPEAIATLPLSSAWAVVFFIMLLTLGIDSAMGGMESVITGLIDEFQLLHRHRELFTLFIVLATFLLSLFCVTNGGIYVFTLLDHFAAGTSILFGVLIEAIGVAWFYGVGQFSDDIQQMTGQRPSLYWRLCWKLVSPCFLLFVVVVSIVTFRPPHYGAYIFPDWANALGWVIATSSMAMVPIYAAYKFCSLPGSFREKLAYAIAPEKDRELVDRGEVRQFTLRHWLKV
Chain of human NET (P23975 whole entry): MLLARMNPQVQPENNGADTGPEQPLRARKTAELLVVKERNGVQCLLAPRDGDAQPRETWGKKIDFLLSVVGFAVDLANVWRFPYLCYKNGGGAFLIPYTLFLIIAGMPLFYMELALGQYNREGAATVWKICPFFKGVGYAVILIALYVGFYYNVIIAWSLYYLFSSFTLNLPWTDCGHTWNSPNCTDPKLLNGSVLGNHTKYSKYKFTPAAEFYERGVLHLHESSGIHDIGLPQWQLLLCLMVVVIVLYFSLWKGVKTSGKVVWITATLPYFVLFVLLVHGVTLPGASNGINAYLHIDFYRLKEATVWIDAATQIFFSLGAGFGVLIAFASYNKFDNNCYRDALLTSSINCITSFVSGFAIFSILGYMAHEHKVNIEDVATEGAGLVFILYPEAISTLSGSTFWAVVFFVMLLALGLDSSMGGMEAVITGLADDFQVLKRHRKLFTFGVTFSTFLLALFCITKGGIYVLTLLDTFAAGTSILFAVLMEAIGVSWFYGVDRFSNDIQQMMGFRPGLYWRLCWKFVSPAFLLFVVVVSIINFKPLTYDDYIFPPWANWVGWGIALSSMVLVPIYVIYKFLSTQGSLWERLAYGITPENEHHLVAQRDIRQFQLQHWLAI

Turning to `CCNC1(c2ccccc2)CCc2nc(N)sc2C1` (racemic) [rac-A5, N^6-ethyl-6-phenyl-4,5,6,7-tetrahydrobenzothiazole-2,6-diamine], the IC50 is 2000 nM against human DAT and 3300 nM on human NET. Further, the half-life at 1 μM in series [1] is over 120 min.
